Source: patent US20130040933A1, “AZAINDOLES AS JANUS KINASE INHIBITORS” (priority 2010, published 2013)

biological target: T1, rhJAK3 (Homo sapiens, UniProt P52333); experiment: JAK Biochemical HTRF Assay (JAK3); settings: recombinant purified GST-tagged catalytic domain, HTRF format, [ATP] 1.7 μM; read-out: rhJAK3 IC50
T1 construct: recombinant purified GST-tagged catalytic domain for each enzyme; purchased Invitrogen PV3855
Experimental: JAK Biochemical HTRF Assay Protocol
The ability of compounds to inhibit the activity of JAK1, JAK2, JAK3, and TYK2 was measured using a recombinant purified GST-tagged catalytic domain for each enzyme (Invitrogen JAK1 #PV4774, JAK2 #PV4210, JAK3 #PV3855, TYK2 #PV4790) in an HTRF format biochemical assay. The reactions employed a common peptide substrate, LCB-EQEDEPEGDYFEWLW-NH2. The basic assay protocol is as follows: First, […] of diluted compounds in DMSO were dispensed into the wells of a dry 384-well Black plate (Greiner #781076) using a Labcyte Echo 555 acoustic dispenser. Subsequent reagent additions employed a Thermo Multidrop Combi nL. Next, 10 μL of 2× enzyme and 2× substrate in 1× assay buffer (Invitrogen kinase buffer #PV3189, 2 mM DTT, 0.05% BSA) were added to the wells and preincubated for 30 min at room temperature to allow compound binding to equilibrate. After equilibration, 10 μl, of 2×ATP in 1× assay buffer was added to initiate the kinase reaction and the plates were incubated at room temperature for 120 min. At the end of the incubation, 20 μL of 2× stop buffer containing streptavidin-Dylight (Thermo #21845) and Eu-tagged pY20 antibody (Perkin Elmer #AD0067) was added to quench the reaction. Plates were further incubated 60 min at room temperature with shaking and then read on a Perkin Elmer Envision (λex=337 nm, λem=665 and 615 nm, TRF delay time=20 μs). HTRF signal=10,000*665 nm reading/615 nm reading. After normalization to untreated controls, the percent inhibition of the HTRF signal at each compound concentration was calculated. The plot of percent inhibition vs. the log of compound concentration was fit with a 4-parameter dose response equation to calculate IC50 values.

T1 sequence (P52333 822-1111 limits assumed): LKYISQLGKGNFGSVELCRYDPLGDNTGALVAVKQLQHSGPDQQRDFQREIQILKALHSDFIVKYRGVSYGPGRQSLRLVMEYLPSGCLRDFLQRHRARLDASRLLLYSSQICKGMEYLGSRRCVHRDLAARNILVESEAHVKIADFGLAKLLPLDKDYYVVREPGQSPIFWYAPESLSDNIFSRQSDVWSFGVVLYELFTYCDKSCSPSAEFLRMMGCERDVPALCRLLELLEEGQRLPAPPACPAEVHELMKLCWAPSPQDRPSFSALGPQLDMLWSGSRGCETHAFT

SMILES	IC50
CC(C)[C@@H](Nc1cncc(-c2c[nH]c3ncc(C(N)=O)cc23)n1)C(=O)NCC(F)(F)F [16 Step 8]	≤ 1 nM
C[C@@H](Nc1cncc(-c2c[nH]c3ncc(Cl)cc23)n1)C(=O)NCC(F)(F)F [Example 1, N^2-[6-(5-Chloro-1H-pyrrolo[2,3-b]pyridin-3-yl)pyrazin-2-yl]-N-(2,2,2-trifluoroethyl)-D-alaninamide]	≤ 1 nM
O=C(NCC(F)(F)F)[C@@H]1CC[C@@H](Nc2cncc(-c3c[nH]c4ncc(Cl)cc34)n2)C1 [Example 1-1, (1R,3R)-3-{[6-(5-chloro-1H-pyrrolo[2,3-b]pyridin-3-yl)-pyrazin-2-yl]amino}-N-(2,2,2-trifluoroethyl)cyclopentane-carboxamide]	1 to 10 nM
O=C(NCC(F)(F)F)[C@H]1CC[C@@H](Nc2cncc(-c3c[nH]c4ncc(Cl)cc34)n2)C1 [Example 1-2, (1S,3R)-3-{[6-(5-chloro-1H-pyrrolo[2,3-b]pyridin-3-yl)-pyrazin-2-yl]amino}-N-(2,2,2-trifluoroethyl)cyclopentane-carboxamide]	1 to 10 nM
O=C(NCC(F)(F)F)[C@@H]1CC[C@H](Nc2cncc(-c3c[nH]c4ncc(Cl)cc34)n2)C1 [Example 1-3, (1R,3S)-3-{(6-(5-chloro-1H-pyrrolo[2,3-b]pyridin-3-yl)-pyrazin-2-yl]amino}-N-(2,2,2-trifluoroethyl)cyclopentane-carboxamide]	1 to 10 nM
O=C(NCC(F)(F)F)[C@H]1CC[C@H](Nc2cncc(-c3c[nH]c4ncc(Cl)cc34)n2)C1 [Example 1-4, (1S,3S)-3-{[6-(5-chloro-1H-pyrrolo[2,3-b]pyridin-3-yl)-pyrazin-2-yl]amino}-N-(2,2,2-trifluoroethyl)cyclopentane-carboxamide]	10 to 100 nM
O=C(NCC(F)(F)F)[C@@H]1CCCN1c1cncc(-c2c[nH]c3ncc(Cl)cc23)n1 [Example 1-5, 1-[6-(5-chloro-1H-pyrrolo[2,3-b]pyridin-3-yl)-pyrazin-2-yl]-N-(2,2,2-trifluoroethyl)-L-prolinamide]	1 to 10 nM
O=C(NCC(F)(F)F)[C@H]1CCCN1c1cncc(-c2c[nH]c3ncc(Cl)cc23)n1 [Example 1-6, 1-[6-(5-chloro-1H-pyrrolo[2,3-b]pyridin-3-yl)pyrazin-2-yl]-N-(2,2,2-trifluoroethyl)-D-prolinamide]	≤ 1 nM
CCNC(=O)[C@H]1CCCN1c1cncc(-c2c[nH]c3ncc(Cl)cc23)n1 [Example 1-7, 1-[6-(5-chloro-1H-pyrrolo[2,3-b]pyridin-3-yl)pyrazin-2-yl]-N-ethyl-D-prolinamide]	1 to 10 nM
O=C(NCC(F)(F)F)[C@@H]1CC(F)(F)CN1c1cncc(-c2c[nH]c3ncc(Cl)cc23)n1 [Example 1-8, 1-[6-(5-chloro-1H-pyrrolo[2,3-b]pyridin-3-yl)pyrazin-2-yl]-4,4-difluoro-N-(2,2,2-trifluoroethyl)-L-prolinamide]	1 to 10 nM
CC1(C(=O)NCC(F)(F)F)CCN1c1cncc(-c2c[nH]c3ncc(Cl)cc23)n1 (stereo not drawn) [Example 1-9, 1-[6-(5-chloro-1H-pyrrolo[2,3-b]pyridin-3-yl)pyrazin-2-yl]-2-methyl-N-(2,2,2-trifluoroethyl)azetidine-2-carboxamide]	≤ 1 nM
C[C@@]1(C(=O)NCC(F)(F)F)CCN1c1cncc(-c2c[nH]c3ncc(Cl)cc23)n1 [Example 1-10, (2S)-1-[6-(5-chloro-1H-pyrrolo[2,3-b]pyridin-3-yl)pyrazin-2-yl]-2-methyl-N-(2,2,2-trifluoroethyl)azetidine-2-carboxamide]	1 to 10 nM
C[C@]1(C(=O)NCC(F)(F)F)CCN1c1cncc(-c2c[nH]c3ncc(Cl)cc23)n1 [Example 1-11, (2R)-1-[6-(5-chloro-1H-pyrrolo[2,3-b]pyridin-3-yl)pyrazin-2-yl]-2-methyl-N-(2,2,2-trifluoroethyl)azetidine-2-carboxamide]	≤ 1 nM
CC(C)[C@@H](Nc1cncc(-c2c[nH]c3ncc(Cl)cc23)n1)C(=O)NCC(F)(F)F [Example 1-12, N^2-[6-(5-chloro-1H-pyrrolo[2,3-b]pyridin-3-yl)pyrazin-2-yl]-N-(2,2,2-trifluoroethyl)-D-valinamide]	≤ 1 nM
CC(C)(C)OC(=O)N1CCN(c2cncc(-c3c[nH]c4ncc(Cl)cc34)n2)[C@@H](C(=O)NCC(F)(F)F)C1 [Example 1-13, tert-butyl (3R)-4-[6-(5-chloro-1H-pyrrolo[2,3-b]pyridin-3-yl)pyrazin-2-yl]-3-[(2,2,2-trifluoroethyl)carbamoyl]-piperazine-1-carboxylate]	1 to 10 nM
CC(C)(Nc1cncc(-c2c[nH]c3ncc(Cl)cc23)n1)C(=O)NCC(F)(F)F [Example 1-14, N^2-[6-(5-chloro-1H-pyrrolo[2,3-b]pyridin-3-yl)pyrazin-2-yl]-2-methyl-N-(2,2,2-trifluoroethyl)alaninamide]	≤ 1 nM
O=C(NCC(F)(F)F)C1CN(c2cncc(-c3c[nH]c4ncc(Cl)cc34)n2)C1 [Example 1-15, 1-[6-(5-chloro-1H-pyrrolo[2,3-b]pyridin-3-yl)pyrazin-2-yl]-N-(2,2,2-trifluoroethyl)azetidine-3-carboxamide]	10 to 100 nM
COC(=O)c1ncc(N[C@@H](C)C(=O)NCC(F)(F)F)nc1-c1c[nH]c2ncc(Cl)cc12 [Example 1-16, methyl 3-(5-chloro-1H-pyrrolo[2,3-b]pyridin-3-yl)-5-({(1S)-1-methyl-2-oxo-2-[(2,2,2-trifluoroethyl)amino]ethyl}amino)-pyrazine-2-carboxylate]	10 to 100 nM
C[C@H](Nc1cncc(-c2c[nH]c3ncc(Cl)cc23)n1)C(=O)NCC(F)(F)F [Example 2, N^2-[6-(5-Chloro-1H-pyrrolo[2,3-b]pyridin-3-yl)pyrazin-2-yl]-N-(2,2,2-trifluoroethyl)-L-alaninamide]	≤ 1 nM
C[C@H](Nc1cncc(-c2c[nH]c3ncc(Cl)cc23)n1)C(=O)NCC#N [Example 2-1, N^2-[6-(5-chloro-1H-pyrrolo[2,3-b]-pyridin-3-yl)pyrazin-2-yl]-N-(cyanomethyl)-L-alaninamide]	10 to 100 nM
C[C@H](Nc1cncc(-c2c[nH]c3ncc(Cl)cc23)n1)C(=O)N1CCOCC1 [Example 2-2, 6-(5-chloro-1H-pyrrolo[2,3-b]-pyridin-3-yl)-N-[(1S)-1-methyl-2-morpholin-4-yl-2-oxoethyl]pyrazin-2-amine]	100 to 1000 nM
C[C@H](Nc1cncc(-c2c[nH]c3ncc(Cl)cc23)n1)C(=O)N1CCC(F)(F)C1 [Example 2-3, 6-(5-chloro-1H-pyrrolo[2,3-b]-pyridin-3-yl)-N-[(1S)-2-(3,3-difluoropyrrolidin-1-yl)-1-methyl-2-oxoethyl]pyrazin-2-amine]	10 to 100 nM
C[C@H](Nc1cncc(-c2c[nH]c3ncc(Cl)cc23)n1)C(=O)N1CC(F)(F)C(F)(F)C1 [Example 2-4, 6-(5-chloro-1H-pyrrolo[2,3-b]-pyridin-3-yl)-N-[(1S)-1-methyl-2-oxo-2-(3,3,4,4-tetrafluoro-pyrrolidin-1-yl)ethyl]pyrazin-2-amine]	100 to 1000 nM
C[C@@H](Nc1cncc(-c2c[nH]c3ncc(Cl)cc23)n1)C(=O)NCc1cccnc1Cl [Example 2-5, N-[(2-chloropyridin-3-yl)methyl]-N^2-[6-(5-chloro-1H-pyrrolo[2,3-b]-pyridin-3-yl)pyrazin-2-yl]-D-alaninamide]	100 to 1000 nM
